# In patent publication US20240400560A1, “BICYCLIC HETEROCYCLIC DERIVATIVE HAVING VIRAL GROWTH INHIBITORY ACTIVITY AND PHARMACEUTICAL COMPOSITION CONTAINING SAME” (Shionogi & Co., Ltd., priority 2021, published 2024):
# Where two headings read alike, the source gives them in different places.
# Target: SARS-CoV-2 3CL protease (Severe acute respiratory syndrome coronavirus 2, UniProt P0DTD1)
# Experiment: Inhibitory activity test against SARS-CoV-2 3CL proteases
# Format: biochemical
# [1] = read-out: IC50 (50% SARS-CoV-2 3CL protease inhibitory concentration)
# [2] = IC50 (50% SARS-CoV-2 3CL protease inhibitory concentration)
SMILES,IC50 [1] [nM],IC50 [2] [nM]
CCn1c(-c2cc(C#N)ccc2Cl)cc2c(c1=O)c(=O)n(-c1cncc(Cl)c1)c(=O)n2Cc1cc(F)c(F)c(F)c1 [Compound I-0437],1.3,–
COc1cc(-c2c(Cl)ccc3c(=O)[nH]ccc23)cc2c1c(=O)n(Cc1ncn(C)n1)c(=O)n2Cc1cc(F)c(F)c(F)c1 [Compound I-0274],15,–
CNC(=O)c1ccc(Cl)c(-c2cc(OC)c3c(=O)n(-c4cncc(C)c4)c(=O)n(Cc4ccc(F)c(C#N)c4)c3c2)c1 [Compound I-0192],< 100,–
O=c1[nH]cccc1Cn1c(=O)c2ccc(N3C[C@@H]4C[C@H]3CN4)cc2n(Cc2cc(F)c(F)c(F)c2)c1=O [Compound I-0141],< 100,–
COc1cc(-c2cc(CC(=O)N(C)C)ccc2Cl)cc2c1c(=O)n(-c1cncc(Cl)c1)c(=O)n2Cc1cc(Cl)ccc1C [Compound I-0205],< 100,–
Cn1cnc(Cn2c(=O)c3c(F)cc(-c4cc(-c5nnc(N)o5)ccc4Cl)cc3n(Cc3cc(F)c(F)c(F)c3)c2=O)n1 [Compound I-0080],34,–
Cn1cnc(Cn2c(=O)c3c(=O)n(C)c(-c4cc(C#N)ccc4Cl)cc3n(Cc3cc(F)c(F)c(F)c3)c2=O)n1 [Compound I-0169],2.7,–
O=c1[nH]cccc1Cn1c(=O)c2ccc(N3C[C@@H]4CN[C@@H](C4)C3)cc2n(Cc2cc(F)c(F)c(F)c2)c1=O [Compound I-0378],< 100,–
COc1cc(-c2cc(N=S(C)(C)=O)ccc2Cl)cc2c1c(=O)n(-c1cncc(Cl)c1)c(=O)n2Cc1cc(F)c(F)c(F)c1 [Compound I-0210],28,–
COc1cc(-c2cc(C(=O)NCCCO)ccc2Cl)cc2c1c(=O)n(-c1cncc(C)c1)c(=O)n2Cc1ccc(F)c(C#N)c1 [Compound I-0193],9,–
Cn1cnc(Cn2c(=O)c3nnc(N4CC[C@@H](F)C4)cc3n(Cc3cc(F)c(F)c(F)c3)c2=O)n1 [Compound I-0935],1000 to 10000,–
COc1cc(N2C[C@H]3C[C@@H]2CN3)cc2c1c(=O)n(-c1cncc(Cl)c1)c(=O)n2Cc1cc(F)c(F)c(F)c1 [Compound I-0396],1.3,–
COc1nc(N2CC[C@@H](O)C2)cc2c1c(=O)n(Cc1ncn(C)n1)c(=O)n2Cc1cc(F)c(F)c(Cl)c1 [Compound I-0388],20,–
Cn1cnc(Cn2c(=O)c3c(Cl)cc(-c4cc5c(cc4Cl)NC(=O)C5)cc3n(Cc3cc(F)c(F)c(Cl)c3)c2=O)n1 [Compound I-0171],3.2,–
COc1cc(-c2cc(CC(=O)O)ccc2Cl)cc2c1c(=O)n(-c1cncc(Cl)c1)c(=O)n2Cc1cc(Cl)ccc1C [Compound I-0198],< 100,–
Cc1cncc(-n2c(=O)c3c(Cl)cc(-c4cc(C#N)ccc4Cl)cc3n(Cc3cc(F)c(F)c(F)c3)c2=O)c1 [Compound I-0012],< 100,–
COc1nc(N2CC[C@@H](F)C2)cc2c1c(=O)n(Cc1ncn(C)n1)c(=O)n2Cc1cc(F)c(F)c(Cl)c1 [Compound I-0484],< 100,–
COc1cc(-c2cc(C(=O)NCCOCCO)ccc2Cl)cc2c1c(=O)n(-c1cncc(C)c1)c(=O)n2Cc1ccc(F)c(C#N)c1 [Compound I-0196],11,–
COc1nc(N2CC[C@@H](C(N)=O)C2)cc2c1c(=O)n(Cc1ncn(C)n1)c(=O)n2Cc1cc(F)c(F)c(Cl)c1 [Compound I-0445],22,–
COc1nc(-c2cc3c(cc2Cl)NC(=O)C3)cc2c1c(=O)n(Cc1ncn(C)n1)c(=O)n2Cc1cc(F)c(F)c(F)c1 [Compound I-0032],9.4,–

SMILES,IC50 [1] [nM],IC50 [2] [nM]
Cn1cnc(Cn2c(=O)c3c(Cl)cc(-c4cc(C#N)ccc4Cl)cc3n(Cc3cc(F)c(F)c(Cl)c3)c2=O)n1 [Compound I-0175],< 100,–
NC(=O)c1ccc(Cl)c(-c2ccc3c(=O)n(Cc4ccc[nH]c4=O)c(=O)n(Cc4cc(F)c(F)c(F)c4)c3c2)c1 [Compound I-0296],< 100,–
COc1nc2cc(-c3cc(OC)c4c(=O)n(Cc5ncn(C)n5)c(=O)n(Cc5cc(F)c(F)c(F)c5)c4c3)c(Cl)cc2[nH]1 [Compound I-0501],6.4,–
COc1cc(-c2c(Cl)ccc3c2CNC3=O)cc2c1c(=O)n(Cc1ncn(C)n1)c(=O)n2Cc1cc(F)c(F)c(F)c1 [Compound I-0277],24,–
Cn1cnc(Cn2c(=O)c3c4c(c(-c5cc(C#N)ccc5Cl)cc3n(Cc3cc(F)c(F)c(F)c3)c2=O)CCCO4)n1 [Compound I-0460],9.2,–
COc1cc(-c2cc(C(=O)NCCN(C)C)ccc2Cl)cc2c1c(=O)n(Cc1ncn(C)n1)c(=O)n2Cc1cc(F)c(F)c(F)c1 [Compound I-0212],< 100,–
Cc1cc2c(=O)n(Cc3ncn(C)n3)c(=O)n(Cc3cc(F)c(F)c(F)c3)c2cc1-c1cc2c(cc1Cl)NC(=O)C2 [Compound I-0248],7.3,–
O=c1[nH]cccc1Cn1c(=O)c2ccc(N3C[C@H]4C[C@@H]3CN4)cc2n(Cc2cc(F)c(F)c(F)c2)c1=O [Compound I-0140],1.3,–
Cc1cncc(-n2c(=O)c3c(Cl)cc(-c4cc(CO)ccc4Cl)cc3n(Cc3cc(F)c(F)c(F)c3)c2=O)c1 [Compound I-0016],< 100,–
COc1cc(-c2cc(S(C)(=N)=O)ccc2Cl)cc2c1c(=O)n(-c1cncc(Cl)c1)c(=O)n2Cc1cc(F)c(F)c(F)c1 (centres unmarked) [Compound I-0188],5.8,–
Cn1cnc(Cn2c(=O)c3c(Cl)cc(-c4cc5c(cc4Cl)NC(=O)C5)cc3n(Cc3cc(Cl)c(F)cn3)c2=O)n1 [Compound I-0117],< 100,–
Cc1cncc(-n2c(=O)c3c(Cl)cc(-c4cc(CO)ccc4Cl)cc3n(Cc3ccc(F)c(C#N)c3)c2=O)c1 [Compound I-0014],30,–
COc1nc(-c2cc(C#N)ccc2Cl)cc2c1c(=O)n(Cc1ncn(C)n1)c(=O)n2Cc1cc(F)c(F)c(Cl)c1 [Compound I-0174],16,–
COc1cc(-c2cc(C(=O)NCCN3CCOCC3)ccc2Cl)cc2c1c(=O)n(Cc1ncn(C)n1)c(=O)n2Cc1cc(F)c(F)c(F)c1 [Compound I-0217],< 100,–
COc1cc(-c2cc(-c3ncc[nH]3)ccc2Cl)cc2c1c(=O)n(Cc1ncn(C)n1)c(=O)n2Cc1cc(F)c(F)c(F)c1 [Compound I-0123],< 100,–
COc1nc(C2=CC3CCC(C2)N3)cc2c1c(=O)n(-c1cncc(Cl)c1)c(=O)n2Cc1cc(F)c(F)c(F)c1 (centres unmarked) [Compound I-0464],–,11
COc1cc(-c2cc3cn[nH]c3cc2Cl)cc2c1c(=O)n(Cc1ncn(C)n1)c(=O)n2Cc1cc(Cl)c(F)cc1F [Compound I-0272],< 100,–
CC1COc2c1c(N1CC[C@@H](O)C1)cc1c2c(=O)n(Cc2ncn(C)n2)c(=O)n1Cc1cc(F)c(F)c(F)c1 (some centres unmarked) [Compound I-0440],10,–
COc1cc(-c2cc(C#N)ccc2Cl)cc2c1c(=O)n(Cc1ncn(C)n1)c(=O)n2Cc1cc(Cl)c(F)cc1F [Compound I-0279],< 100,–
N#Cc1ccc(Cl)c(-c2cc3c(c(=O)[nH]2)c(=O)n(-c2cncc(Cl)c2)c(=O)n3Cc2cc(F)c(F)c(F)c2)c1 [Compound I-0431],11,–

SMILES,IC50 [1] [nM],IC50 [2] [nM]
COc1nc(N2CC[C@@H](F)C2)cc2c1c(=O)n(Cc1ncn(C)n1)c(=O)n2Cc1cc(F)c(F)c(F)c1 [Compound I-0453],–,2.5
Cn1cnc(Cn2c(=O)c3c(F)c(I)c(-c4cc(C#N)ccc4Cl)cc3n(Cc3cc(F)c(F)c(Cl)c3)c2=O)n1 [Compound I-0542],< 100,–
COc1nc2c(=O)n(Cc3ncn(C)n3)c(=O)n(Cc3cc(F)c(F)c(F)c3)c2cc1-c1cc(C#N)ccc1Cl [Compound I-0516],15,–
COc1cc(-c2cc3c(cc2Cl)NC(=O)C3)cc2c1c(=O)n(-c1cncc(C)c1)c(=O)n2Cc1cc(F)c(F)c(C#N)c1 [Compound I-0161],0.75,–
COc1nc(N2[C@@H]3CC[C@H]2CNC3)cc2c1c(=O)n(-c1cncc(Cl)c1)c(=O)n2Cc1cc(F)c(F)c(F)c1 [Compound I-0541],–,3.4
Cn1cnc(Cn2c(=O)c3c(F)cc(-c4cc5c(cc4Cl)NC(=O)C54CC4)cc3n(Cc3cc(F)c(F)c(F)c3)c2=O)n1 [Compound I-0119],23,–
COc1cc(-c2cc3c(cc2Cl)NC(=O)C3)cc2c1c(=O)n(-c1cncc(C)c1)c(=O)n2Cc1ccc(F)c(C#N)c1 [Compound I-0060],2.7,–
COc1cc(-c2cc3c(cc2Cl)NC(=O)C3(C)C)cc2c1c(=O)n(Cc1ncn(C)n1)c(=O)n2Cc1cc(F)c(F)c(F)c1 [Compound I-0275],19,–
Cn1cnc(Cn2c(=O)c3c(F)cc(-c4cc5cn[nH]c5cc4Cl)cc3n(Cc3cc(F)c(F)c(Cl)c3)c2=O)n1 [Compound I-0269],< 100,–
CC1COc2c1c(-c1cc(C#N)ccc1Cl)cc1c2c(=O)n(Cc2ncn(C)n2)c(=O)n1Cc1cc(F)c(F)c(F)c1 (centres unmarked) [Compound I-0438],3.5,–
CNC(=O)c1ccc(Cl)c(-c2cc(OC)c3c(=O)n(Cc4ncn(C)n4)c(=O)n(Cc4cc(F)c(F)c(F)c4)c3c2)c1 [Compound I-0213],33,–
COc1cc(-c2cc(C(C)(C)O)ccc2Cl)cc2c1c(=O)n(Cc1ncn(C)n1)c(=O)n2Cc1cc(F)c(F)c(F)c1 [Compound I-0276],24,–
COc1nc(-c2cc(C#N)ccc2Cl)cc2c1c(=O)n(Cc1ncn(C)n1)c(=O)n2Cc1cc(F)c(F)c(F)c1 [Compound I-0176],33,–
COc1cc(-c2cc(S(C)(=O)=O)ccc2Cl)cc2c1c(=O)n(Cc1ncn(C)n1)c(=O)n2Cc1cc(F)c(F)c(F)c1 [Compound I-0122],27,–
COc1cc(-c2cc3[nH]c(=O)[nH]c3cc2Cl)cc2c1c(=O)n(Cc1ncn(C)n1)c(=O)n2Cc1cc(F)c(F)c(F)c1 [Compound I-0265],< 100,–
Cn1cnc(Cn2c(=O)c3c(Cl)cc(-c4cc5cn[nH]c5cc4Cl)cc3n(Cc3cc(F)c(F)c(Cl)c3)c2=O)n1 [Compound I-0173],< 100,–
COc1cc(-c2cc(C#N)ccc2Cl)cc2c1c(=O)n(Cc1ncn(C)n1)c(=O)n2Cc1cc(F)c(F)c(Cl)c1 [Compound I-0271],< 100,–
COc1nc(N2C[C@@H]3CC[C@H]2CN3)cc2c1c(=O)n(-c1cncc(Cl)c1)c(=O)n2Cc1cc(F)c(F)c(Cl)c1 [Compound I-0540],< 100,–
Cn1cnc(Cn2c(=O)c3c(F)cc(-c4nc5c(cc4Cl)NC(=O)C54CC4)cc3n(Cc3cc(F)c(F)c(F)c3)c2=O)n1 [Compound I-0008],21,–
